This passage reports EC50 results from patent publication US20220348558A1, “INHIBITORS OF ENCEPHALITIC ALPHAVIRUSES” (priority 2019, published 2022).

For one experiment, the system named is VEEV TC83. The experiment can be described thus: microbe, parasite or virus in culture. Format: cell-based. Conditions: Venezuelan equine encephalitis virus, Vero 76, 48 h, read-out: VEEV TC83 EC50 nM.
The test system of another experiment is WEEV California. The experiment can be described thus: microbe, parasite or virus in culture. It counts as cell-based. The following applies: Western equine encephalitis virus, Vero 76, 48 h, read-out: WEEV California EC50 nM.

By EC50 is commonly meant the concentration needed to bring the measured effect to its halfway point. As to `COc1ccc(-n2c([C@@H]3CCCN3)nc3c(C(F)(F)F)cc(C#N)cc3c2=O)cc1` [Example 75, (S)-3-(4-methoxyphenyl)-4-oxo-2-(pyrrolidin-2-yl)-8-(trifluoromethyl)-3,4-dihydroquinazoline-6-carbonitrile], the EC50 in the experiment on VEEV TC83 and in the experiment on WEEV California was 51 to 150 nM throughout.

On to `COc1c(F)cc(-n2c(C34CC(CN3)C4)nc3c(-c4cc(C)nc(C)c4)cc(C#N)cc3c2=O)cc1F` [Example 174, 2-(2-azabicyclo[2.1.1]hexan-1-yl)-3-(3,5-difluoro-4-methoxyphenyl)-8-(2,6-dimethylpyridin-4-yl)-4-oxo-3,4-dihydroquinazoline-6-carbonitrile], for which the EC50 with VEEV TC83 and with WEEV California was 51 to 150 nM in each case.

For the molecule `COc1ccc(-n2c([C@@]3(C)CCCN3)nc3c(-c4ccc(C)nc4)cc(C#N)cc3c2=O)cc1F` [Example 141, (R)-3-(3-fluoro-4-methoxyphenyl)-8-(6-methylpyridin-3-yl)-2-(2-methylpyrrolidin-2-yl)-4-oxo-3,4-dihydroquinazoline-6-carbonitrile], the EC50 with VEEV TC83 and in the experiment on WEEV California was 1 to 50 nM each time.

Regarding `COc1ccc(-n2c(C3CCCN3)nc3c(Cc4ccc(C)nc4)cc(C#N)cc3c2=O)cc1F` (stereo not shown) [Example 187, 3-(3-fluoro-4-methoxyphenyl)-8-((6-methylpyridin-3-yl)methyl)-4-oxo-2-(pyrrolidin-2-yl)-3,4-dihydroquinazoline-6-carbonitrile], the EC50 in the experiment on VEEV TC83 lay in the range of 51 to 150 nM; with WEEV California, 151 to 500 nM.

Take `COc1ccc(-n2c([C@@H](C)N(C)C)nc3ccc([N+](=O)[O-])cc3c2=O)cc1` [Example 209, (R)-2-(1-(dimethylamino)ethyl)-3-(4-methoxyphenyl)-6-nitroquinazolin-4 (3H)-one]: the EC50 in the experiment on VEEV TC83 lay within 51 to 150 nM; with WEEV California, 151 to 500 nM.

Consider `COc1ccc(-n2c([C@@H]3CCN(C)C3)nc3c(C)cc([N+](=O)[O-])cc3c2=O)cc1F` [Example 68, (R)-3-(3-fluoro-4-methoxyphenyl)-8-methyl-2-(1-methylpyrrolidin-3-yl)-6-nitroquinazolin-4 (3H)-one], for which the half-maximal effective concentration (EC50) in the experiment on VEEV TC83 and in the experiment with WEEV California was 151 to 500 nM in each case.

For `COc1ccc(-n2c([C@H]3CCCN3)nc3cc(F)c(C#N)cc3c2=O)cc1` [Example 34, (R)-7-fluoro-3-(4-methoxyphenyl)-4-oxo-2-(pyrrolidin-2-yl)-3,4-dihydroquinazoline-6-carbonitrile], the half-maximal effective concentration (EC50) in the experiment with VEEV TC83 and with WEEV California was 51 to 150 nM each time.

Turning to `COc1ccc(-n2c([C@@H]3CCNC3)nc3c(C)cc([N+](=O)[O-])cc3c2=O)cc1F` [Example 67, (R)-3-(3-fluoro-4-methoxyphenyl)-8-methyl-6-nitro-2-(pyrrolidin-3-yl) quinazolin-4 (3H)-one], the EC50 in the experiment with VEEV TC83 and in the experiment with WEEV California was 151 to 500 nM each time.

With `COc1ccc(-n2c([C@H]3CCCN3)nc3c(C)cc(C#N)cc3c2=O)cc1` [Example 50, (R)-3-(4-methoxyphenyl)-8-methyl-4-oxo-2-(pyrrolidin-2-yl)-3,4-dihydroquinazoline-6-carbonitrile], the EC50 in the experiment with VEEV TC83 and with WEEV California was 1 to 50 nM in each case.

For the molecule `C=C(C)c1ccc(-c2cc(C#N)cc3c(=O)n(-c4cc(F)c(OC)c(F)c4)c(C4CCCN4)nc23)cc1` (stereo not shown) [Example 172, 3-(3,5-difluoro-4-methoxyphenyl)-4-oxo-8-(4-(prop-1-en-2-yl)phenyl)-2-(pyrrolidin-2-yl)-3,4-dihydroquinazoline-6-carbonitrile], the concentration giving a half-maximal response (EC50) in the experiment on VEEV TC83 and in the experiment with WEEV California was 51 to 150 nM in each case.

Consider `COc1ccc(-n2c([C@H]3CCCN3)nc3ccc([N+](=O)[O-])cc3c2=O)c(F)c1` [Example 25, (R)-3-(2-fluoro-4-methoxyphenyl)-6-nitro-2-(pyrrolidin-2-yl) quinazolin-4 (3H)-one], for which the EC50 with VEEV TC83 is 51 to 150 nM; with WEEV California, 151 to 500 nM.
